Assay results reported in patent publication EP0457326A1, “Antiviral agents” (SYNTEX (U.S.A.) INC., priority 1990, dated 1991).
Like-named read-outs stand apart in the source and are kept apart here.

What was measured:
[1] = prior art statement; cited from earlier work
HIV = settings: prior art statement; cited from earlier work
[2] = preliminary results of Biochemical Pharmacology 38, 869-74 (1989); cited from earlier work
HIV (LAV Strain) = assay: Antiviral activity in HIV-infected A301 (Alex) cells, read out by reverse transcriptase level; format: cell-based; settings: Human immunodeficiency virus 1, 168 h
Experimental: This procedure is a modification of a procedure initially described by Chen et al., Biochemical Pharmacology, 36 (24), 4361-4362 (1987).
(§1) A301 (Alex) cells are pre-infected with a constant amount of HIV (LAV Strain) for three hours at 37°C. Test compounds and AZT (control) are added to the infected cells in two, three or five-fold dilutions, diluted out four places for screening and eight places for confirmation in 96 well plates. Unless mentioned the highest concentration is […]. The test plates are incubated in CO₂ at 37°C for seven days (incubation time depends on virus pool titer) with a partial medium/sample change on day four of the incubation period. Uninfected A301 cells with sample dilutions, but without virus, are used to evaluate cytotoxicity.
Reverse transcriptase levels are assayed at the end of the incubation period as follows, to determine if antiviral activity is present.
[…] of medium from the HIV infected Alex cells is added to […] of 3.2% Triton X-100. This solution is incubeted for 30 minutes at 37°C, then […] of 4X assay mix is added to it. The 4X assay mix contains [³H]TTP, poly(A).oligo(dT), potassium chloride, magnesium chloride, dithiothreitol, and Tris-HCl buffer, pH8.0. […] The radioactivity remaining on the 3MM paper is quantitated by scintillation counter, and corresponds to reverse transcriptase level.

Uninfected A301 cells = assay: Cytotoxicity in uninfected A301 cells; format: cell-based; settings: uninfected A301 cells with sample dilutions, without virus
Experimental: as §1, with “Test compounds and AZT (control) are added to the infected cells in two, three or five-fold dilutions, diluted out four places for screening and eight places for confirmation in 96 well plates.” left out

[3] = Cytotoxicity in uninfected A301 cells; format: cell-based; settings: human; uninfected A301 cells with sample dilutions, without virus; read-out: Cell Toxicity Partial
Experimental: as §1, with “Test compounds and AZT (control) are added to the infected cells in two, three or five-fold dilutions, diluted out four places for screening and eight places for confirmation in 96 well plates.” left out

For [N-]=[N+]=N[C@]1(CO)O[C@@H](n2ccc(N)nc2=O)[C@H](O)[C@@H]1O [4'-azidocytidine], the cytotoxicity [1] is listed as “cytotoxic” and the anti-HIV activity (HIV) is listed as “devoid of anti-HIV activity”.

In the case of [N-]=[N+]=N[C@H]1C[C@H](n2cc(Cl)c(=O)[nH]c2=O)O[C@@H]1CO [5-chloro-substituted-3'-azido-2',3'-dideoxyuridine], the antiviral activity [2] is given as “potent antiviral activity”.

In the case of O=c1[nH]c(=O)n([C@H]2C[C@H](F)[C@@H](CO)O2)cc1Cl [5-chloro-substituted-3'-fluoro-2',3'-dideoxyuridine], the antiviral activity [2] is given as “potent antiviral activity”.

For [N-]=[N+]=N[C@]1(CO)O[C@@H](n2cc(Cl)c(=O)[nH]c2=O)C[C@@H]1O [A, 1-(4-azido-2-deoxy-β-D-erythro-pentofuranosyl)-5-chloro-2,4-dioxopyrimidine], the EC50 (HIV (LAV Strain); A301 (Alex) cells pre-infected with HIV (LAV Strain), seven days incubation, reverse transcriptase level, read-out: EC50) was 56 nM, the “Cell Toxicity Complete” value (Uninfected A301 cells) was >1000 µM and the MCC at 168 h [3] was 1 mM.

With Cc1cn([C@H]2C[C@H](N=[N+]=[N-])[C@@H](CO)O2)c(=O)[nH]c1=O [control, 3'-azidothymidine] the EC50 (HIV (LAV Strain)) was 5 nM, the “Cell Toxicity Complete” value (Uninfected A301 cells) was >40 µM and the MCC at 168 h [3] was > 0.04 mM.
